Source: US9718781B2, “Methods and compounds for treating proliferative disorders and viral infections” (University College Dublin, National University of Ireland, …, priority 2012, dated 2017)

Legend:
TPα = target: T1, TPα (Homo sapiens, UniProt P21731); experiment: U46619-induced [Ca2+]i mobilization in HEK.TPα cells; format: cell-based; details: for remaining activity at 1 µM / Percentage of Control, TPα, 1 μM: antagonist 1 μM; for remaining activity at 1 µM / remaining activity at 10 µM / Percentage of Control, TPα, 1 μM / Percentage of Control, TPα, 10 μM / IC50: 1 μM U46619; for remaining activity at 1 µM / remaining activity at 10 µM / Percentage of Control, TPα, 1 μM / Percentage of Control, TPα, 10 μM: % of agonist-induced response in vehicle-treated cells; for remaining activity at 1 µM: read-out: Percentage of Control, TPα, 1 μM; for remaining activity at 10 µM / Percentage of Control, TPα, 10 μM: antagonist 10 μM; for remaining activity at 10 µM: read-out: Percentage of Control, TPα, 10 μM; for IC50: HEK.TPα cells, Table 2, read-out: IC50 data for U46619-mediated [Ca2+]i mobilization, TPα; for TPα:TPβ Selectivity Ratio: IC50 TPα/IC50 TPβ
T1 construct: expressed in transfected cells
T1 sequence (P21731 1-343): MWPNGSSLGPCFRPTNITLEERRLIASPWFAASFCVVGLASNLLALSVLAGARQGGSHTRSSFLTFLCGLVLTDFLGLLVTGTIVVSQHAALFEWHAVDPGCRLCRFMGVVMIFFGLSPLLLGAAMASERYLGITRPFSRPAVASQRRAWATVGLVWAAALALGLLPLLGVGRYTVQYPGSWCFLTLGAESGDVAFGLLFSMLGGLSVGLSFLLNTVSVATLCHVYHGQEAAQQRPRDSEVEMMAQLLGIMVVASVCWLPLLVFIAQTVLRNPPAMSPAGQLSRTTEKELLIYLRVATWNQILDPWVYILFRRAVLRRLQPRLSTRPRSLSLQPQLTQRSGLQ
Excerpt: (§1) An appropriate functional test for the evaluation of the agonistic and/or antagonistic potency of the compounds of the invention is the determination of calcium flux. Both TPα and TPβ are coupled to the G-protein Gαq. Therefore, stimulation of these receptors ultimately leads to a release of intracellular calcium ([Ca^2+]i) from intracellular stores. Consequently, the determination of [Ca^2+]i flux represents an appropriate functional test for the evaluation of the agonistic/antagonistic potency of compounds of the invention. Calcium can be measured using a molecule characterized by the covalent combination of a Ca^2+ chelating group and a fluorophore group. The Ca^2+ binding properties of these indicators are formed by the presence of a tetracarboxylic acid core as found for example in EGTA (Ethylene Glycol bis(2-aminoethyl)Tetraacetic Acid). Binding of Ca^2+ produces a wavelength shift in either the excitation or emission fluorescence spectra or a change in the emission intensity. Whereas the Ca^2+ binding to EGTA is pH dependent, recent dyes are designed from an EGTA derivative, BAPTA (1,2-Bis(2-Aminophenoxy)ethane-N,N,N′,N′-Tetraacetic Acid). Loading of these dyes inside cells commonly uses esterified forms (acetoxymethyl ester), which are able to cross the cell membranes and are subsequently hydrolyzed by esterases inside the cell.
(§2) Estimation of [Ca^2+]i flux is calculated from the fluorescence signal (F). For calibration, the maximal fluorescence (Fmax, Ca^2+-saturated form of the dye) as well as minimal fluorescence (Fmin, Ca^2+-free form of the dye) must be determined. These parameters are determined usually in situ after the experiment, for example by subsequent addition to the mixture of a cell-disrupting agent that releases all Ca^2+ such as Triton X100 and a potent Ca^2+-chelating agent such as EGTA. After subtraction of background fluorescence, [Ca^2+]; flux can be calculated for non-ratiometric indicators.
(§3) Intracellular [Ca^2+]; fluxes were measured using a fluorescence plate reader following a modified protocol of Kassack et al., ‘Quantitative comparison of functional screening by measuring intracellular Ca^2+ with radioligand binding at recombinant human dopamine receptors’, AAPS Pharmsci, 2002, 4(4); 102-111, in cell lines (e.g. HEK293 or other cell type) endogenously-expressing or over-expressing either TPα, TPβ or any other receptor or protein to be screened.
(§4) By way of example, HEK 293 cells which have been grown for 3-4 days in normal growth media (minimum essential media containing 10% FBS and 2 mmol/1 L-glutamine), under normal growth conditions (37° C., in humidified 5% CO2 atmosphere) are washed and harvested in KREBs-HEPES buffer (118 mM NaCl, 4.7 mM KCl, 1.2 mM MgSO4, 1.2 mM KH2PO4, 4.2 mM NaHCO3, 11.7 mM D-glucose, 1.3 mM CaCl2, 10 mM HEPES, pH 7.4). Cells are then incubated with 3 μM Fluo-4 in KREBs-HEPES buffer containing 1% Pluoronic F-127, for 1 hr at 25° C. with agitation. Then, cells are washed in KREBs-HEPES buffer containing 0.5% BSA and re-suspended at a final concentration of 3×10^5 cells/ml. Approx. 5.4×10^4 cells per well are plated in a 96-well plate and pre-incubated with test compounds for 10 m prior to measuring the fluorescence intensity at 520 nm for 25 seconds at 1 s intervals to monitor baseline using the Fluoroskan Ascent. Agonist (e.g., 1 μM U46619) is injected into separate wells by the automatic pipettor and fluorescence intensity is monitored at 520 nm for 75 seconds at 1 s intervals. Thereafter, Triton X100 and EGTA are added sequentially where Fmax refers to maximal fluorescence intensity measured after permeabilization of the cells with 2% Triton X100 and Fmin refers to fluorescence intensity measured after addition of 1 mM EGTA.
(§5) The dye Fluo-4 has its excitation peak at 480 nm, in the visible spectra, which spare cells to be damaged by UV (340-360 nm) stimulation and reduces auto-fluorescence of cells. […]

TPβ = target: T2, TPβ (Homo sapiens, UniProt P21731); experiment: U46619-induced [Ca2+]i mobilization in HEK.TPβ cells; format: cell-based; details: 1 μM U46619; for remaining activity at 1 µM / activity class in HEK.TPβ cells / Percentage of Control, TPβ, 1 μM: antagonist 1 μM; for remaining activity at 1 µM / remaining activity at 10 µM / Percentage of Control, TPβ, 1 μM / Percentage of Control, TPβ, 10 μM: % of agonist-induced response in vehicle-treated cells; for remaining activity at 1 µM: read-out: Percentage of Control, TPβ, 1 μM; for remaining activity at 10 µM / Percentage of Control, TPβ, 10 μM: antagonist 10 μM; for remaining activity at 10 µM: read-out: Percentage of Control, TPβ, 10 μM; for IC50: HEK.TPβ cells, Table 2, read-out: IC50 data for U46619-mediated [Ca2+]i mobilization, TPβ
T2 construct: expressed in transfected cells
T2 sequence (P21731 1-407 isoform P21731-2): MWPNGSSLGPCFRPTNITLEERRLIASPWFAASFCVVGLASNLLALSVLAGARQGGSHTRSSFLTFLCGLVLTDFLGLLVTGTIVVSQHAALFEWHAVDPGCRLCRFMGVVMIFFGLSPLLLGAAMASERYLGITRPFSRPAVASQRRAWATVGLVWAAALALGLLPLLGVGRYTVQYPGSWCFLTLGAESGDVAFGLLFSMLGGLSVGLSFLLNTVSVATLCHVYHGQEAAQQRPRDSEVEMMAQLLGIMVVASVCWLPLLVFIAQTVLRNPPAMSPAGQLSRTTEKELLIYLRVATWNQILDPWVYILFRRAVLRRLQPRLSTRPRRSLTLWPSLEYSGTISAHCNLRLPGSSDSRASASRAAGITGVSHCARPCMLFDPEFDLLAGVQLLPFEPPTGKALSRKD
Excerpt: as §1, §2, §3, §4, §5

remaining activity at 1 µM (TPα) [%]	remaining activity at 10 µM (TPα) [%]	remaining activity at 1 µM (TPβ) [%]	remaining activity at 10 µM (TPβ) [%]	Compound	also measured
72.4 ± 5.97	55.7 ± 5.84	42.5 ± 2.32	18.5 ± 3.53	COc1ccc(-c2cccc(Oc3ccc(-c4ccoc4)cc3S(=O)(=O)NC(=O)NC(C)(C)C)c2)cc1 [NTP20]	–
78.3 ± 8.28	66.4 ± 4.95	51 ± 1.62	32.2 ± 2.89	COc1ccc(-c2cccc(Oc3ccc(-c4ccco4)cc3S(=O)(=O)NC(=O)NC(C)(C)C)c2)cc1 [NTP21]	–
96.8 ± 3.94	107 ± 6.48	87.7 ± 8.18	37.9 ± 2.61	COc1ccc(-c2cccc(Oc3ccc(C(=O)Nc4ncco4)cc3S(=O)(=O)NC(=O)NC(C)(C)C)c2)cc1 [NTP24]	–
80 ± 7.15	65.5 ± 6.32	61.6 ± 1.93	14.8 ± 2.03	COc1ccc(-c2cccc(Oc3ccc(C(=O)Nc4ccccc4)cc3S(=O)(=O)NC(=O)NC(C)(C)C)c2)cc1 [NTP25]	–
108 ± 7.64	89.5 ± 10.3	110 ± 1.85	62.3 ± 4.3	CCNC(=O)c1ccc(Oc2cccc(-c3ccc(OC)cc3)c2)c(S(=O)(=O)NC(=O)NC(C)(C)C)c1 [NTP28]	–

The remaining lines, values behind:

Compound	remaining activity at 1 µM (TPα) [%]	remaining activity at 10 µM (TPα) [%]	remaining activity at 1 µM (TPβ) [%]	remaining activity at 10 µM (TPβ) [%]	also measured
COc1ccc(-c2cccc(Oc3ccc(C(=O)N4CCOCC4)cc3S(=O)(=O)NC(=O)NC(C)(C)C)c2)cc1 [NTP22]	101 ± 7.28	87.6 ± 11.3	85.1 ± 4.38	50.1 ± 4.06	–
COc1ccc(-c2cccc(Oc3ccc(C(=O)N4CC(O)C4)cc3S(=O)(=O)NC(=O)NC(C)(C)C)c2)cc1 [NTP23, N-(tert-butylcarbamoyl)-5-(3-hydroxyazetidine-1-carbonyl)-2-((4′-methoxy-[1,1′-biphenyl]-3-yl)oxy)benzenesulfonamide]	64.2 ± 2.89	49.9 ± 7.61	48.4 ± 2.75	20.4 ± 1.94	–
COc1ccc(-c2cccc(Oc3ccc(S(C)(=O)=O)cc3S(=O)(=O)NC(=O)NC(C)(C)C)c2)cc1 [NTP27, N-(tert-butylcarbamoyl)-2-((4′-methoxy-[1,1′-biphenyl]-3-yl)oxy)-5-(methylsulfonyl)benzenesulfonamide]	81.1 ± 10.2	68.4 ± 4.56	36.4 ± 3.8	16.3 ± 2.39	activity class in HEK.TPβ cells (TPβ): ACTIVE
COc1ccc(-c2cccc(Oc3ccc(-c4ccncc4)cc3S(=O)(=O)NC(=O)NC(C)(C)C)c2)cc1 [NTP29]	113 ± 8.15	105 ± 8.03	100 ± 4.69	94.6 ± 3.58	–
COc1ccc(-c2cccc(Oc3ccc(Cl)cc3S(=O)(=O)NC(=O)NC(C)(C)C)c2)cc1 [NTP30, N-(tert-butylcarbamoyl)-5-chloro-2-((4′-methoxy-[1,1′-biphenyl]-3-yl)oxy)benzenesulfonamide]	52.2 ± 3.9	23.3 ± 3.63	46.5 ± 5.86	9.31 ± 1.57	activity class in HEK.TPβ cells (TPβ): ACTIVE
COc1ccc(-c2cccc(Oc3ccncc3S(=O)(=O)NC(=O)NC(C)(C)C)c2)cc1 [NTP31, N-(tert-butylcarbamoyl)-4-((4′-methoxy-[1,1′-biphenyl]-3-yl)oxy)pyridine-3-sulfonamide]	77.3 ± 8.72	52.7 ± 2.89	74.8 ± 5.49	27.7 ± 4.21	–
COc1ccc(-c2cccc(Oc3cc(C)c(C#N)cc3S(=O)(=O)NC(=O)NC(C)(C)C)c2)cc1 [NTP32, N-(tert-butylcarbamoyl)-5-cyano-2-((4′-methoxy-[1,1′-biphenyl]-3-yl)oxy)-4-methyl benzenesulfonamide]	–	–	–	–	Percentage of Control, TPα, 1 μM (TPα): 80.3 ± 4.21%; Percentage of Control, TPα, 10 μM (TPα): 69.3 ± 2.07%; Percentage of Control, TPβ, 1 μM (TPβ): 93.6 ± 4.06%; Percentage of Control, TPβ, 10 μM (TPβ): 46.2 ± 4.83%
COc1ccc(-c2cccc(Oc3ccc(C#N)cc3S(=O)(=O)NC(=O)NC(C)(C)C)c2)cc1 [NTP33, N-(tert-butylcarbamoyl)-5-cyano-2-((4′-methoxy-[1,1′-biphenyl]-3-yl)oxy)benzene-sulfonamide]	–	–	–	–	Percentage of Control, TPα, 1 μM (TPα): 103 ± 6.25%; Percentage of Control, TPα, 10 μM (TPα): 82.4 ± 5.86%; Percentage of Control, TPβ, 1 μM (TPβ): 75.6 ± 6.46%; Percentage of Control, TPβ, 10 μM (TPβ): 34.5 ± 1.56%
COc1ccc(-c2cccc(Oc3cc[n+]([O-])cc3S(=O)(=O)NC(=O)NC(C)(C)C)c2)cc1 [NTP41, 3-(N-(tert-butylcarbamoyl)sulfamoyl)-4-((4′-methoxy-[1,1′-biphenyl]-3-yl)oxy)pyridine 1-oxide]	82.6 ± 3.41	52.8 ± 8.03	72.2 ± 5.66	18.8 ± 1.77	–
CCCCCNC(=O)NS(=O)(=O)c1cc([N+](=O)[O-])ccc1Oc1cccc(-c2ccc(OC)cc2)c1 [XLIII]	–	–	–	–	IC50 (TPα): 13 µM; TPα:TPβ Selectivity Ratio (TPα): 1.4; IC50 (TPβ): 9.33 µM
CC(C)(C)NC(=O)NS(=O)(=O)c1cc([N+](=O)[O-])ccc1Oc1cccc(I)c1 [XXXVIII, 2-(3-Iodophenoxy)-5-nitrobenzene(t-butyl)sulfonyl urea]	–	–	–	–	IC50 (TPα): 4.01 µM; TPα:TPβ Selectivity Ratio (TPα): 2; IC50 (TPβ): 1.99 µM
